Experimental data taken from patent US4160829A, “Antibacterial 1,2,4-oxadiazolylacetamido cephalosporins” (Gist-Brocades N.V., priority 1972, dated 1979).
≈ marks a conversion by molar mass, not a printed value. Read-outs that look alike come from different tables or passages of the source.

How the values were obtained:
Bac.Subt.ATCC 6633 = assay: agar serial dilution test; assay type: cell-based, Bacillus subtilis; conditions: Bacillus subtilis, ATCC6633, 24 h, agar serial dilution, 24 hours, 37° C.; read-out: minimal inhibitory concentration (MIC)
Staph.aureus A 355 [1] = assay: agar serial dilution test; conditions: Staphylococcus aureus, A355, 24 h, read-out: minimal inhibitory concentration (MIC), agar serial dilution, 24 hours, 37° C.; penicillinase-producing strain
Past.multo. A 723 = assay: agar serial dilution test; assay type: cell-based, Pasteurella multocida; conditions: Pasteurella multocida; agar serial dilution, 24 hours, 37° C.; read-out: minimal inhibitory concentration (MIC)
Prot.rettg. A 821 = assay: agar serial dilution test; assay type: cell-based, Proteus rettgeri; conditions: Providencia rettgeri, 24 h, read-out: minimal inhibitory concentration (MIC)
Prot.mirab. L 93 = assay: agar serial dilution test; assay type: cell-based, Proteus mirabilis; conditions: Proteus mirabilis
Bruc.melit. A 488 = assay: microbe, parasite or virus in culture; assay type: cell-based; conditions: Brucella melitensis, 24 h, read-out: minimal inhibitory concentration (MIC)
Prot.mirab. A 1200 = assay: agar serial dilution test; assay type: cell-based, Proteus mirabilis; conditions: Proteus mirabilis, 24 h, agar serial dilution, 24 hours, 37° C.; read-out: minimal inhibitory concentration (MIC)
Dipl.pneum. L 54 = assay: agar serial dilution test; assay type: cell-based, Diplococcus pneumoniae; conditions: Streptococcus pneumoniae; agar serial dilution, 24 hours, 37° C.; read-out: minimal inhibitory concentration (MIC)
Kleb.pneum. A 809 = assay: agar serial dilution test; assay type: cell-based, Klebsiella pneumoniae; conditions: Klebsiella pneumoniae; agar serial dilution, 24 hours, 37° C.; read-out: minimal inhibitory concentration (MIC)
Staph.aureus A 2001 [2] = assay: agar serial dilution test; assay type: cell-based, Staphylococcus aureus; conditions: Staphylococcus aureus, A2001, 24 h, agar serial dilution, 24 hours, 37° C.; read-out: minimal inhibitory concentration (MIC)
Staph.aureus A 321 = assay: agar serial dilution test; assay type: cell-based, Staphylococcus aureus; conditions: Staphylococcus aureus, A321, 24 h, agar serial dilution, 24 hours, 37° C.; read-out: minimal inhibitory concentration (MIC)
Shig.equir. T 3 = assay: agar serial dilution test; assay type: cell-based; conditions: 24 h, 37° C., read-out: minimal inhibitory concentration (MIC)
Prot.mirab. H 3 = assay: agar serial dilution test; assay type: cell-based, Proteus mirabilis; conditions: Proteus mirabilis
[3] = tested on: Pseud.aerug. Wyeth A 1058; assay: agar serial dilution test; assay type: cell-based; conditions: agar serial dilution, 24 hours, 37° C.; read-out: minimal inhibitory concentration (MIC)
Strep. faec. L 80 = assay: agar serial dilution test; assay type: cell-based, Streptococcus faecalis; conditions: Enterococcus faecalis; agar serial dilution, 24 hours, 37° C.; read-out: minimal inhibitory concentration (MIC)
Pseud.aerug. H 10 = assay: agar serial dilution test; assay type: cell-based; conditions: agar serial dilution, 24 hours, 37° C.; read-out: minimal inhibitory concentration (MIC)
Staph.aureus A 2000 [4] = assay: agar serial dilution test; assay type: cell-based, Staphylococcus aureus; conditions: Staphylococcus aureus, A2000, 24 h, agar serial dilution, 24 hours, 37° C.; read-out: minimal inhibitory concentration (MIC)
Haem.infl. A 1030 = assay: micro serial dilution test; assay type: cell-based; conditions: 18 h, micro serial dilution (in brackets), about 18 hours, 30° C. or 37° C.; read-out: minimal inhibitory concentration (MIC)
Prot.morg. 2241 = assay: agar serial dilution test; assay type: cell-based; conditions: 24 h, agar serial dilution, 24 hours, 37° C.; read-out: minimal inhibitory concentration (MIC)
Pseud.aerug. 2396 = assay: agar serial dilution test; assay type: cell-based; conditions: agar serial dilution, 24 hours, 37° C.; read-out: minimal inhibitory concentration (MIC)
Esch.coli U 20 = assay: agar serial dilution test; assay type: cell-based, Escherichia coli; conditions: Escherichia coli, U20; agar serial dilution, 24 hours, 37° C.; read-out: minimal inhibitory concentration (MIC)
Salm.dubl. P 43 = assay: agar serial dilution test; assay type: cell-based, Salmonella dublin; conditions: Salmonella enterica, read-out: minimal inhibitory concentration (MIC)
Salm.typh. R 127 = assay: agar serial dilution test; assay type: cell-based; conditions: 24 h, 37° C., read-out: minimal inhibitory concentration (MIC)
Strep.haem. A 266 = assay: agar serial dilution test; assay type: cell-based, Streptococcus haemolyticus; conditions: Streptococcus; agar serial dilution, 24 hours, 37° C.; read-out: minimal inhibitory concentration (MIC)
Staph.aureus A 355 [5] = assay: micro serial dilution test; assay type: cell-based, Staphylococcus aureus; conditions: Staphylococcus aureus, A355; micro serial dilution (in brackets), about 18 hours, 30° C. or 37° C.; penicillinase-producing strain; read-out: minimal inhibitory concentration (MIC)
Description: Two drops of a stock solution of the test compound (antibiotic) in a known concentration were brought into the first hole of a test plate with 9 numbered holes with a sterile Pasteur pipette. After rinsing this pipette three times with a physiological NaCl-solution, two drops of a stock solution of the test organism in a culture medium were brought in all the holes except for hole 8. In the first hole, the solution of the tested compound had been half diluted, then by stirring the liquid in the first hole and adding two drops of this mixture to the second hole and so on until hole 8, dilutions of the test compound solution were obtained in geometrical progression. The hole 9 contained no antibiotic and served for checking the growth of the testogranism in a blank medium. The test plate was incubated at 30° C. or 37° C. for about 18 hours.
^1 Penicillinase-producing strain

Staph.aureus A 2000 [6] = assay: micro serial dilution test; assay type: cell-based, Staphylococcus aureus; conditions: Staphylococcus aureus, A2000, 18 h, micro serial dilution (in brackets), about 18 hours, 30° C. or 37° C.; read-out: minimal inhibitory concentration (MIC)
Staph.aureus A 2001 [7] = assay: micro serial dilution test; assay type: cell-based, Staphylococcus aureus; conditions: Staphylococcus aureus, A2001, 18 h, micro serial dilution (in brackets), about 18 hours, 30° C. or 37° C.; read-out: minimal inhibitory concentration (MIC)
[8] = agar serial dilution, 24 hours, 37° C.
[9] = agar serial dilution, 24 hours, 37° C., read-out: minimal inhibitory concentration (MIC)
[10] = 24 h, read-out: minimal inhibitory concentration (MIC), agar serial dilution, 24 hours, 37° C.

Compound | MIC (Bac.Subt.ATCC 6633) [µg/mL] | MIC (Staph.aureus A 355 [1]) [µg/mL] | MIC (Past.multo. A 723) [µg/mL] | MIC (Prot.rettg. A 821; [8]) [µg/mL] | MIC (Bruc.melit. A 488) [µg/mL] | MIC (Prot.mirab. A 1200) [µg/mL] | MIC (Kleb.pneum. A 809) [µg/mL] | MIC (Staph.aureus A 2001 [2]) [µg/mL] | MIC (Staph.aureus A 321) [µg/mL] | MIC (Shig.equir. T 3) [µg/mL] | MIC [3] [µg/mL] | MIC (Strep. faec. L 80) [µg/mL] | MIC (Pseud.aerug. H 10) [µg/mL] | MIC (Staph.aureus A 2000 [4]) [µg/mL] | MIC (Haem.infl. A 1030) [µg/mL] | MIC (Prot.morg. 2241) [µg/mL] | MIC (Pseud.aerug. 2396) [µg/mL] | MIC (Esch.coli U 20) [µg/mL] | MIC (Salm.typh. R 127) [µg/mL] | MIC (Strep.haem. A 266) [µg/mL] | also measured
Cc1noc(C(C)C(=O)N[C@@H]2C(=O)N3[C@@H]2SC(C)(C)[C@@H]3C(=O)O)n1 (mixture of isomers) [Example 11H, dl-6[α-methyl-(3-methyl-1,2,4-oxadiazol-5-yl)-acetamido]-penicillanic acid] | 0.06 | 12.5 | 1.5 | 12.5 | 0.25 | > 100 | > 100 | 3 | 0.25 | 25 | > 100 | 6 | > 100 | 6 | 3.7 | > 100 | > 100 | ≥ 100 | 100 | 0.5 | MIC (Prot.mirab. L 93; [9]): 6 µg/mL; MIC (Dipl.pneum. L 54): 0.25 µg/mL; MIC (Prot.mirab. H 3; [9]): > 100 µg/mL; MIC (Salm.dubl. P 43; [8]): 50 µg/mL
CC(=O)OCC1=C(C(=O)O)N2C(=O)[C@@H](NC(=O)C(C)c3nc(C)no3)[C@H]2SC1 (mixture of isomers) [Example 11I, dl-7-[α-methyl-(3-methyl-1,2,4-oxadiazol-5-yl)-acetamido]-cephalosporanic acid] | 0.12 | 3 | 1.5 | 6 | 6 | 25 | 6 | 1.5 | 1 | 12.5 | > 100 | 75 | > 100 | 1.5 | > 125 | > 100 | > 100 | 50 | 25 | 0.25 | MIC (Prot.mirab. L 93; [10]): 12.5 µg/mL; MIC (Staph.aureus A 355 [5]): 1.2 µg/mL; MIC (Staph.aureus A 2000 [6]): 1.2 µg/mL; MIC (Prot.mirab. H 3; [10]): 12.5 µg/mL; MIC (Staph.aureus A 2001 [7]): 1.2 µg/mL; MIC (Salm.dubl. P 43; 24 h): 12.5 µg/mL
CCc1noc(C(C)C(=O)N[C@@H]2C(=O)N3C(C(=O)O)=C(COC(C)=O)CS[C@H]23)n1 (mixture of isomers) [Example 11K, dl-7-[α-methyl-(3-ethyl-1,2,4-oxadiazol-5-yl)-acetamido]-cephalosporanic acid] | 0.25 | 1.5 | 1.5 | – | 12.5 | > 100 | 6 | 1 | 1.5 | 25 | > 100 | 100 | > 100 | 1.5 | 125 | > 100 | > 100 | > 100 | > 100 | 0.06 | MIC (Prot.rettg. A 821): 12.5 µg/mL; MIC (Prot.mirab. L 93; [10]): 12.5 µg/mL; MIC (Dipl.pneum. L 54): 1 µg/mL; MIC (Staph.aureus A 355 [5]): 0.9 µg/mL; MIC (Staph.aureus A 2000 [6]): 1.2 µg/mL; MIC (Prot.mirab. H 3; [9]): > 100 µg/mL; MIC (Staph.aureus A 2001 [7]): 0.9 µg/mL; MIC (Salm.dubl. P 43; [8]): 100 µg/mL
CC1=C(C(=O)O)N2C(=O)[C@@H](NC(=O)Cc3nc(-c4c(Cl)cccc4Cl)no3)[C@H]2SC1 [Example 11E, 7-{[3-(2,6-dichlorophenyl)-1,2,4-oxadiazol-5-yl]-acetamido}desacetoxycephalosporanic acid] | 1 (≈ 2.13 µM) | 0.75 (≈ 1.6 µM) | 25 (≈ 53.3 µM) | > 100 | 50 (≈ 107 µM) | > 100 | 100 (≈ 213 µM) | 1 (≈ 2.13 µM) | 0.5 (≈ 1.07 µM) | > 100 | > 100 | 12.5 (≈ 26.6 µM) | > 100 | 0.75 (≈ 1.6 µM) | 125 (≈ 266 µM) | > 100 | > 100 | > 100 | > 100 | 0.25 (≈ 0.533 µM) | MIC (Prot.mirab. L 93; [9]): > 100 µg/mL; MIC (Staph.aureus A 355 [5]): 0.25 µg/mL (≈ 0.533 µM); MIC (Staph.aureus A 2000 [6]): 3.7 µg/mL (≈ 7.88 µM); MIC (Prot.mirab. H 3; [9]): > 100 µg/mL; MIC (Staph.aureus A 2001 [7]): 0.25 µg/mL (≈ 0.533 µM); MIC (Salm.dubl. P 43; [8]): > 100 µg/mL
CCc1noc(CC(=O)N[C@@H]2C(=O)N3C(C(=O)O)=C(COC(C)=O)CS[C@H]23)n1 [Example 11L, 7-[(3-ethyl-1,2,4-oxadiazol-5-yl)-acetamido]-cephalosporanic acid] | 0.12 (≈ 0.292 µM) | 1 (≈ 2.44 µM) | 2 (≈ 4.87 µM) | 1 (≈ 2.44 µM) | 6 (≈ 14.6 µM) | 25 (≈ 60.9 µM) | 1.5 (≈ 3.65 µM) | 1 (≈ 2.44 µM) | 0.25 (≈ 0.609 µM) | 3 (≈ 7.31 µM) | > 100 | 50 (≈ 122 µM) | > 100 | 1 (≈ 2.44 µM) | ≥ 125 | > 100 | > 100 | 6 (≈ 14.6 µM) | 6 (≈ 14.6 µM) | 0.25 (≈ 0.609 µM) | MIC (Prot.mirab. L 93; [9]): 3 µg/mL (≈ 7.31 µM); MIC (Dipl.pneum. L 54): 1 µg/mL (≈ 2.44 µM); MIC (Prot.mirab. H 3; [9]): 50 µg/mL (≈ 122 µM); MIC (Salm.dubl. P 43; [8]): 3 µg/mL (≈ 7.31 µM)
CCc1noc(C(C)C(=O)N[C@@H]2C(=O)N3[C@@H]2SC(C)(C)[C@@H]3C(=O)O)n1 (stereo partly drawn) [Example 11M, sodium 6-[α-methyl-(3-ethyl-1,2,4-oxadiazol-5-yl)-acetamido]-penicillanate H2 O] | 0.06 | 12.5 | 1 | 3 | 0.5 | > 100 | > 100 | 6 | 0.12 | 50 | > 100 | 6 | > 100 | 6 | 3.7 | > 100 | > 100 | > 100 | > 100 | 0.5 | MIC (Prot.mirab. L 93; [9]): 25 µg/mL; MIC (Dipl.pneum. L 54): 0.5 µg/mL; MIC (Prot.mirab. H 3; [9]): > 100 µg/mL; MIC (Salm.dubl. P 43; [8]): 50 µg/mL
